Data as given in the NIST ThermoML archive (doi:10.1021/je800828y).
Numbers after ± are expanded uncertainties.

Settings: 351.44 K; Liquid; Ebulliometric method (Recirculating still)

CCO [ethanol]
vapor or sublimation pressure: 101.3 ± 0.1 kPa
